Consider 74 molecules from PubChem BioAssay AID1996.

Values after ≈ are worked out from the molar mass of the structure shown.

For the data set the following is noted: buffer; pH 7.4; 200.0 µM.
Broadly, the kinetic solubility is solubility judged after dilution from a stock solution rather than from solid. `CCOC(=O)c1cnc2c(OC)cccc2c1Oc1ccccc1` yielded a solubility (kinetic) of 7.2 µg/mL (≈ 22.3 µM).
Take `O=C(Cc1ccc([N+](=O)[O-])cc1)N1CCN(Cc2ccc3c(c2)OCO3)CC1`: the kinetic solubility came to 46.4 µg/mL (≈ 121 µM).
The figure for `Cc1csc2nc(O)c(C(=O)NCCCc3ccccc3)c(=O)n12` is 4.2 µg/mL (≈ 12.2 µM); for `COc1ccc(NC(=O)Nc2ccccn2)cc1OC` it is 16.7 µg/mL (≈ 61.1 µM); for `CCN(CC)c1ccc(S(=O)(=O)N2CCOCC2)cc1NC(=O)Nc1ccccc1` it is 2.2 µg/mL (≈ 5.09 µM).
The figure for `Nc1nc(-c2ccc(NC(=O)c3ccco3)cc2)cs1` is greater than 42.8 µg/mL; for `CCOc1ccc(NS(=O)(=O)c2csc(C(N)=O)c2)cc1` it is 46 µg/mL (≈ 141 µM).
Consider `O=C(CCc1ccccc1)N/N=C/c1cccc(O)c1`, for which the solubility (kinetic) is greater than 40.2 µg/mL.
The molecule `Cc1ccc(NC(=O)CCCC2CCCCC2)c(O)c1` registered a kinetic solubility of less than 0.6 µg/mL.
For the molecule `COc1cccc(CNC(=O)CCC(=O)N2CCOCC2)c1`, the solubility (kinetic) is greater than 46 µg/mL.
Under `O=C(C1CC(=O)N(c2ccc(F)cc2)C1)N1CCCCCC1` (centres undefined) stands greater than 45.7 µg/mL.
Under `Cc1cc(/C=C2/NC(=O)NC2=O)c(C)n1-c1ccc(C#N)cc1` stands 8.4 µg/mL (≈ 27.4 µM).
The figure for `CC(NC(=O)C12CC3CC(C)(CC(C)(C3)C1)C2)c1ccncc1` (centres undefined) is 41.9 µg/mL (≈ 134 µM).
On to `Cc1ccc(C)c(Nc2cc(C)nc3ccccc23)c1`, for which the solubility (kinetic) is greater than 39.4 µg/mL.
Under `O=Cc1ccc(C(=O)OCC(=O)N2CCCC2)cc1` stands 36.3 µg/mL (≈ 139 µM).
Under `CC(=O)c1ccc(NC(=O)COC(=O)CC2CC3CCC2C3)cc1` (centres undefined) stands 37.5 µg/mL (≈ 114 µM); under `Clc1ccc(SCc2csc(N3CCOCC3)n2)cc1`, 10.2 µg/mL (≈ 31.2 µM).
The figure for `Nn1cnnc1SCC(=O)Nc1ccc2c(c1)OCO2` is greater than 44 µg/mL; for `CN1C/C(=C/c2cccs2)C(=O)/C(=C\c2cccs2)C1` it is 24.6 µg/mL (≈ 81.6 µM); for `CC(=O)Oc1ccc(-c2nc3cc(Cl)ccc3c(=O)o2)cc1` it is 1.7 µg/mL (≈ 5.38 µM).
Molecule `CCCOc1cccc(C(=O)Nc2cccc3ncccc23)c1` had a solubility (kinetic) of 7.6 µg/mL (≈ 24.8 µM).
Under `COc1ccc(NC(=O)Nc2ccc3c(c2)OCO3)c(C)c1` stands 1.2 µg/mL (≈ 4 µM); under `CC(C)(C)NC(=O)N1CCn2cccc2C1c1ccccc1F` (centres undefined), 40 µg/mL (≈ 127 µM); under `N#CC1(C#N)C(C(=O)C23CC4CC(CC(C4)C2)C3)C12CCOCC2` (centres undefined), 3.3 µg/mL (≈ 10.2 µM).
The figure for `O=C(Nc1nccs1)c1ccc(CSc2ccccc2)o1` is 1.6 µg/mL (≈ 5.06 µM).
Under `COc1ccc(CCC(C)NCc2ccc(F)cc2)cc1` (centres undefined) stands 31.8 µg/mL (≈ 111 µM).
The molecule `CN(C)c1cc(-c2ccc(F)cc2)oc(=O)c1Cl` returned a kinetic solubility of 7.2 µg/mL (≈ 26.9 µM).
Take `Cc1ccc(C)c(C(=O)c2ccccc2NC(=O)c2ccccn2)c1`: the solubility (kinetic) was less than 0.4 µg/mL.
Under `O=C(NCCCn1ccnc1)c1ccc(Cl)cc1` stands greater than 39.6 µg/mL.
Under `CCN(C(=O)COc1ccc(C)cc1OC)c1cccc2ccccc12` stands 33.7 µg/mL (≈ 96.4 µM); under `COc1ccc(Cl)cc1C(=O)Nc1cccc2ncccc12`, 2.2 µg/mL (≈ 7.03 µM).
The figure for `CC(=O)c1cccc(NC(=O)C(NC(C)C)c2ccccc2)c1` (centres undefined) is greater than 46.6 µg/mL; for `Nc1ccc(-c2nc3cc(N)ccc3o2)cc1` it is greater than 33.8 µg/mL; for `Cc1[nH]c2ccccc2c1C(=O)C(=O)NC1CC1` it is greater than 36.3 µg/mL.
`Cc1ccccc1/C=C/C(=O)N1CCOCC1`: the kinetic solubility is greater than 34.7 µg/mL.
Under `CCN(CC)S(=O)(=O)c1ccc2oc(Nc3ccccc3)nc2c1` stands 6.4 µg/mL (≈ 18.5 µM); under `NC(=O)CCN1CCN(S(=O)(=O)/C=C/c2ccccc2)CC1`, 42.4 µg/mL (≈ 131 µM); under `CN(CC(=O)N1CCCC1)S(=O)(=O)c1ccc2ccccc2c1`, greater than 49.9 µg/mL.
Under `CC(C)N(Cc1ccccc1)C(=O)COC(=O)c1cc[n+]([O-])cc1` stands greater than 49.3 µg/mL.
Under `CCn1cc(C=C2C(=O)N(C)C(=O)N(C)C2=O)c2ccccc21` stands 1 µg/mL (≈ 3.21 µM); under `O=C(CNS(=O)(=O)c1ccccc1)Nc1cccc([N+](=O)[O-])c1`, 49.1 µg/mL (≈ 146 µM).
The molecule `Nc1ccccc1C(=O)NCCCN1CCOCC1` returned a kinetic solubility greater than 39.5 µg/mL.
Under `Cc1ccc(NC(=O)CN2C(=O)NC(C)(CC(C)C)C2=O)c(Br)c1` (centres undefined) stands 55.5 µg/mL (≈ 140 µM); under `COc1ccc(C(=O)CSc2cc(C)[nH]c(=O)n2)cc1`, 23.7 µg/mL (≈ 81.6 µM).
Under `CN1Cc2c(N3CCOCC3)nc3sc(C#N)c(N)c3c2CC1(C)C` stands 15 µg/mL (≈ 42 µM); under `CC(/C=C1\SC(=S)N(CC(=O)O)C1=O)=C\c1ccccc1`, greater than 47.9 µg/mL; under `O=C(NCCCO)C(=O)NCc1ccncc1`, greater than 35.6 µg/mL.
Take `CN(C)S(=O)(=O)c1ccc(C(=O)OC2CCOC2=O)cc1` (centres undefined): the kinetic solubility is greater than 47 µg/mL.
The figure for `Cc1ccc(/C(O)=C2\C(=O)C(=O)N(C)C2c2ccc(F)cc2)cc1` (centres undefined) is greater than 48.8 µg/mL; for `O=C(O)c1cc(S(=O)(=O)N2CCOCC2)c[nH]1` it is greater than 39 µg/mL.
Under `COC(=O)c1ccc(C)c(NC(=O)Cn2c(C)csc2=O)c1` stands greater than 48.1 µg/mL; under `CC(=O)c1cn(CCOc2ccccc2C)c2ccccc12`, less than 0.6 µg/mL.
Take `COc1ccc(CNC(=O)Cc2c[nH]c3ccccc23)cc1OC`: the solubility (kinetic) was 48.6 µg/mL (≈ 150 µM).
The figure for `CC1CN(/C=C/C=O)C(C)CC1OC(=O)c1ccccc1` (centres undefined) is greater than 43.1 µg/mL; for `N=C1c2ccccc2CN1c1cccc([N+](=O)[O-])c1` it is greater than 38 µg/mL.
The figure for `CN(C)c1ccc(/C=N/NC(=O)c2ccn(C)n2)cc1` is greater than 40.7 µg/mL; for `CC1CCCCN1C(=O)CCS(=O)(=O)Cc1ccccc1` (centres undefined) it is 35 µg/mL (≈ 113 µM).
Molecule `Cc1ncc(CSc2ccc(Cl)cc2)c(CO)c1O` yielded a kinetic solubility of 14.1 µg/mL (≈ 47.7 µM).
Under `O=C(NCCN1CCCCC1)Nc1cccc(F)c1` stands greater than 39.8 µg/mL.
Under `Cc1ccc(NS(=O)(=O)c2ccc(C(C)C)cc2)cc1S(=O)(=O)N1CCOCC1` stands 27.4 µg/mL (≈ 62.5 µM).
As for `Cc1onc(-c2ccccc2Cl)c1C(=O)N1CCN(C)CC1`, the kinetic solubility is greater than 48 µg/mL.
The figure for `Cc1cc(C)cc(C(=O)Nc2ccncc2)c1` is greater than 33.9 µg/mL; for `O=C(COC(=O)CCc1ccc(S(=O)(=O)N2CCOCC2)cc1)Nc1ccccc1[N+](=O)[O-]` it is 16.8 µg/mL (≈ 35.2 µM).
Turning to `CC(C)(/C=N/O)/[N+]([O-])=C/c1ccccc1`, the solubility (kinetic) was greater than 30.9 µg/mL.
As for `O=C(Nc1cc(Cl)cc(Cl)c1)C1CCCC1`, the kinetic solubility is less than 0.6 µg/mL.
The figure for `O=C(COC(=O)c1ccc(Cl)nc1)NCc1ccc(F)cc1` is 14.3 µg/mL (≈ 44.3 µM).
The figure for `CC(C)CN=Cc1c(O)c([N+](=O)[O-])cc2oc3c(c12)CCCC3` is 6.5 µg/mL (≈ 20.5 µM); for `CC(=O)N1CCN=C1SCc1cccc(C)c1` it is 33.7 µg/mL (≈ 136 µM).
In turn, `CC(NC(=O)CCNC(=O)c1ccc(C(C)(C)C)cc1)c1ccccc1` (centres undefined) registered a solubility (kinetic) of 17.1 µg/mL (≈ 48.5 µM).
The figure for `CN1CCN(C(=O)/C=C/c2c(F)cccc2Cl)CC1` is greater than 42.4 µg/mL; for `O=C(COc1ccc(Cl)cc1)NCCCNC(=O)c1cnccn1` it is greater than 52.3 µg/mL.
Molecule `CN(C)CCN(C(=O)c1ccc2ccccc2c1)c1nc2ccc(Br)cc2s1.Cl` came in with a kinetic solubility of 3.6 µg/mL.
The figure for `CC(=O)c1c(C)[nH]c(C(=O)NCC2CCCCC2)c1C` is 23.4 µg/mL (≈ 84.7 µM).
Regarding `O=C(CC12CC3CC(CC(C3)C1)C2)NCc1ccc(F)cc1`, the solubility (kinetic) was less than 0.6 µg/mL.
